Ends that are not written are not given here.
Experiments:
[1] = system: MRSA isolate 2468; test: microbe, parasite or virus in culture; format: cell-based, Staphylococcus aureus; conditions: P1 at 15 µg/mL, from vancomycin standard curve
Experimental: (§1) The antimicrobial activity was measured by an agar well diffusion test with some modified methods. In brief, single colonies of the tested strains were suspended in 0.85% NaCl, and then the OD at 625 nm was adjusted to 0.1. The cell suspensions were spread on MH agar, and the tested samples (100 μL) were introduced into each well before incubation at 37 °C for 24 h. Each experiment was performed in three independent replicates, and the inhibition zone was measured and expressed as mean ± SD.
(§2) The agar well diffusion test was performed in triplicate for potency determination, using S. aureus TISTR 517 and MRSA isolate 2468 as the tested bacteria. […] The remaining standard and sample solutions were transferred to the other 3 wells. The plates were incubated at 37 °C for 18 h.

[2] = system: S. aureus TISTR 517; test: microbe, parasite or virus in culture; format: cell-based, Staphylococcus aureus; conditions: P1 at 15 µg/mL, from vancomycin standard curve
Experimental: as §1, §2

[3] = system: MRSA isolate 2468; test: Killing kinetics; format: cell-based, Staphylococcus aureus; conditions: for killing half-time / rate constant of cell death within 24 h: linear regression
Experimental: (§3) S. aureus TISTR 517 and MRSA isolate 2468 were cultured in CAMHB and standardized to obtain the cell number of 5 × 10^5 CFU/mL for initial treatment. […] The reactions were incubated at 37 °C, and then the total volume was spread on MH agar at specific time intervals (0–24 h). The plates were incubated at 37 °C for 24 h before colony count. […] The rate constant of cell death within 24 h and the killing half-time were calculated based on slope and linear regression relationship, respectively. Each experiment was performed in triplicate in 96-well plates. Significant differences (p-value < 0.05) were analyzed by two-way ANOVA and post hoc Tukey’s test for multiple comparisons between treated and non-treated samples.

[4] = system: S. aureus TISTR 517; test: Killing kinetics; format: cell-based, Staphylococcus aureus; conditions: for killing half-time / rate constant of cell death within 24 h: linear regression; for time of eradication effect: strain not named in the sentence (tested bacteria)
Experimental: as §3

[5] = system: MRSA isolate 2468; test: Cell lysis (OD 625 nm), leakage of genetic materials (A260) and viable count; format: cell-based, Staphylococcus aureus; conditions: for cell lysis (OD 625 nm reduction): within 1 h, PBS pH 7.4 + 4% CAMHB, mean ± SD, triplicate
Experimental: (§4) The lysis of bacterial cells was monitored by measuring the OD reduction at 625 nm, whereas the leakage of genetic material was evaluated by measuring the absorbance at 260 nm. Briefly, the bacterial colonies were collected from MH agar and then washed with PBS pH 7.4 three times. The OD at 625 nm of the washed cells was adjusted to 0.35 with PBS pH 7.4 supplemented with an incomplete medium (4% CAMHB) before the cells were transferred to a 96-well plate (100 μL/well). […] For each treatment condition at different time intervals, the reduction in OD at 625 nm was determined, and the supernatant of the treated samples was collected to measure the absorbance at 260 nm. The experiment was performed in triplicate, and the results were expressed as mean ± SD. Two-way ANOVA and post hoc Tukey’s test (p-value < 0.05) were used to determine the significance of differences between treated and non-treated samples.

[6] = system: S. aureus TISTR 517; test: as above; format: cell-based, Staphylococcus aureus
Experimental: as §4

[7] = system: human erythrocytes; test: Hemolysis; format: cell-based; conditions: highest concentration with hemolysis below 10% divided by MIC
Experimental: Human blood (5 mL) from a healthy volunteer was collected in an EDTA tube. The erythrocytes were centrifuged at 700× g for 8 min and washed with PBS pH 7.4 three times. The erythrocytes were diluted with PBS pH 7.4 to reach a 0.5% v/v concentration. The suspension of erythrocytes (50 μL) was transferred to each well in a 96-well plate. The anti-MRSA peptide was dissolved and prepared by performing a 2-fold serial dilution with PBS pH 7.4 before the samples (50 μL) were added to the wells to achieve the final concentrations of 0.25–64 μg/mL. The reactions were incubated at 37 °C for 1 h, and the supernatant was collected by centrifugation at 1000× g for 10 min. The release of hemoglobin was monitored by measuring the absorbance at 540 nm. PBS pH 7.4 and 1% Triton X-100 were used as the negative and positive controls, respectively. The relative hemolysis was determined by normalizing the absorbance of the sample by that of the positive control. Each experiment was performed in three replications.

## VVVNVLVKVLPPPVV [Peptide P1]
[1]
  vancomycin concentration of equivalent potency: 85.97 to 109.05 µg/mL
[2]
  vancomycin concentration of equivalent potency: 76.29 to 87.36 µg/mL
[3]; 1× MIC
  killing half-time: 47.75 h
  rate constant of cell death within 24 h: -0.06 h⁻¹
[3]; 2× MIC
  killing half-time: 13.21 h
  rate constant of cell death within 24 h: -0.23 h⁻¹
[3]; 4× MIC, during 3–12 h
  inhibition rate: 0.32 h⁻¹
[3]; 4× MIC, 95% CI 5.67 to 18.47
  killing half-time: 9.78 h
[3]; 4× MIC, 95% CI −0.17 to −0.36
  rate constant of cell death within 24 h: -0.27 h⁻¹
[3]; after 6 h of treatment, 1× MIC
  inhibition rate: 0.06 h⁻¹
[3]; after 6 h of treatment, 2× MIC
  inhibition rate: 0.24 h⁻¹
[3]; first 3 h
  reduction rate of viable cells: 0.10 h⁻¹
[4]; 1× MIC
  killing half-time: 25.36 h
  rate constant of cell death within 24 h: -0.11 h⁻¹
[4]; 2× MIC
  killing half-time: 11.08 h
  rate constant of cell death within 24 h: -0.26 h⁻¹
  time of eradication effect: 24 h
[4]; 3-24 h, 1× MIC
  reduction rate of viable cells: 0.12 h⁻¹
[4]; 3-24 h, 2× MIC
  reduction rate of viable cells: 0.23 h⁻¹
[4]; 3-24 h, 4× MIC
  reduction rate of viable cells: 0.31 h⁻¹
[4]; 4× MIC, 95% CI 5.35 to 20.12
  killing half-time: 9.80 h
[4]; 4× MIC, 95% CI −0.16 to −0.38
  rate constant of cell death within 24 h: -0.27 h⁻¹
[4]; 4× MIC
  time of eradication effect: 18 h
[4]; first 3 h, all peptide concentrations (1×, 2×, 4× MIC)
  reduction rate of viable cells: 0.14 h⁻¹
[5]; 30 min, 1×-4× MIC
  increase of genetic content in the supernatant (A260): 1.15–1.47 times
[5]; 24 h, 1× MIC
  inhibition by viable cell count: 34.46 ± 0.64%
[5]; 24 h, 1×-4× MIC
  increase of genetic release (A260): 1.81–2.07 times
[5]; 24 h, 2× MIC
  inhibition by viable cell count: 64.47 ± 3.56%
[5]; 24 h, 4× MIC
  inhibition by viable cell count: 96.13 ± 6.70%
[5]; 1× MIC
  cell lysis (OD 625 nm reduction): 12.68 ± 13.57%
[5]; 2× MIC
  cell lysis (OD 625 nm reduction): 26.13 ± 9.48%
[5]; 4× MIC
  cell lysis (OD 625 nm reduction): 20.75 ± 2.75%
[6]; 30 min, 1×-4× MIC
  increase of genetic content in the supernatant (A260): 1.09–1.60 times
[6]; 24 h, 1× MIC
  inhibition by viable cell count: 8.60 ± 0.26%
[6]; 24 h, 1×-4× MIC
  cell lysis: more than 39.67%
  increase of genetic release (A260): 2.05–2.29 times
[6]; 24 h, 2× MIC
  inhibition by viable cell count: 67.63 ± 1.96%
[6]; 24 h, 4× MIC
  inhibition by viable cell count: 94.35 ± 9.78%
[6]; first hour, 1× MIC, PBS pH 7.4 + 4% CAMHB, mean ± SD, triplicate
  cells destroyed (OD 625 nm reduction): 21.08 ± 1.11%
[7]
  therapeutic index of hemolysis (TIhemolysis): 16

Source: PMC9738727, “Purification and Characterization of Novel Anti-MRSA Peptides Produced by Brevibacillus sp. SPR-20” (Molecules, 2022)
